These results are taken from US7358221B1, “Metathesis depolymerizable surfactants” (Sandia Corporation, priority 2004, dated 2008).

Data set [1] can be described thus: Critical micelle concentration by dynamic surface tension (surface tensiometry). The format is physicochemical. To be noted: equilibrium mode, aqueous solution. From the text: FIGS. 5 and 6 also show the response of dynamic surface tension values (operated in equilibrium mode) measured as a function of concentration for surfactants 4 and the anionic salt 7 in aqueous solution. The physicochemical properties of a surfactant change to a significant degree after reaching the cmc due to the presence of micelles and a surfactant-saturated air-water interface.
A comprehensive listing of all the physicochemical properties calculated for these surfactants is shown above in Table 1.
The surfactant concentration at the intersection of the two lines which are least-squares fit to (1) the rapidly changing surface tension readings and (2) the low, relatively constant surface tension readings at high surfactant concentrations defines the cmc by this method. The cmc's calculated from the surface tension data of surfactants 4 and 7 are 1.9 mmol and 5.9 mmol, respectively. The higher values for cmc as determined by dynamic surface tension compared to Orange OT dye solubilization can be attributed to static (dye solubilization) vs. dynamic (surface tension) measurements of the microenvironment.

The nature of data set [2]: Ring-closing metathesis degradation followed by 1H NMR in chloroform. The format is physicochemical. As to conditions: 2 mol. % RuCl2[C21H26N2][CHC6H5]P(C6H11)3 (2nd generation Grubbs catalyst), 25° C. The text has this:
Decomposition of these surfactant molecules takes place by the action of a ring closing metathesis-active transition metal catalyst on the tail portion of the surfactant, as illustrated in FIG. 8. It is believed that initiation of the decomposition reaction produces styrene. Intramolecular reaction of double bonds further up the tail group produces cyclohexene faster than cross-metathesis with another surfactant.
Cyclohexene formation is clearly evident in the solution within five minutes of adding the catalyst, as evidenced by the appearance of broad singlets at δ=1.62 and 1.97 ppm and a characteristic singlet at δ=5.67 ppm.
^1H NMR also indicates the presence of the former head group as 7-(N,N,N-trimethylammonium)hept-1-enyl iodide (unchanged chemical shift at δ=3.48 ppm from starting surfactant 4) as well as the cross-coupled product, cis/trans-1,12-bis(trimethylammonium)dodec-6-enyl diiodide (equivalent methyls at δ=3.43 ppm).
Within 5 minutes after the introduction of catalyst, cyclohexene was clearly present in solution as evidenced by the appearance of broad singlets at δ=1.62 and 1.97 ppm and a characteristic singlet at δ=5.67 ppm (see FIG. 10).
Additionally, peaks clearly assignable to allyl malonic acid (δ=5.12-5.22 ppm, δ=3.57 ppm, δ=2.68 ppm) were present, by comparison with an authentic sample. […]

On to “dipotassium heneicosa-2,8,14,20-tetraenyl malonate [Surfactant 7]”, for which the “cmc as determined by surface tensiometry” value in data set [1] is on record as 5.9 mmol.

For `C=CCCCCC=CCCCCC=CCCCCC[N+](C)(C)C.[I-]` [Surfactant 4, trimethylnonadeca-6,12,18-trienylammonium iodide], the “cmc as determined by surface tensiometry” value in data set [1] came to 1.9 mmol. The “time to nearly complete decomposition” value in data set [2] was no more than 60 min.
